# Source: ChEMBL document CHEMBL6114953, “De novo discovery of cyclic peptide inhibitors of IL-11 signaling” (Bioorg Med Chem, 2025)
# pKi: −log10 of the molar value. Where a SMILES comes first, the peptide text is derived from it. Bridges are numbered along the chain shown (N, C = ends).
# Assay: Inhibition of his-tagged recombinant human IL-11 (22 to 199 residues) expressed in HEK293 cells/biotinylated recombinant human IL-11Ralpha (24 to 370 residues) expressed in HEK293 cells incubated for 1 hr by AlphaLISA assay
# Assay type: cell-based
row,SMILES,pKi
1,CSCC[C@@H]1NC(=O)[C@H](Cc2c[nH]cn2)NC(=O)[C@H](CO)NC(=O)[C@@H](NC(C)=O)CSSC[C@@H](C(=O)N[C@@H](Cc2c[nH]c3ccccc23)C(=O)N[C@@H](CCCNC(=N)N)C(N)=O)NC(=O)[C@H](C(C)C)NC(=O)[C@H]([C@@H](C)O)NC(=O)[C@H]([C@@H](C)O)NC(=O)[C@H](Cc2ccc(O)cc2)NC(=O)[C@H](Cc2ccc(O)cc2)NC1=O (Ac-CSHMYYTTVCWR-NH2; disulfide 1-10),< 4.55
2,CC(=O)N[C@H]1CSSC[C@@H](C(N)=O)NC(=O)[C@H](C(C)C)NC(=O)[C@H](Cc2ccc(O)cc2)NC(=O)[C@H](Cc2c[nH]c3ccccc23)NC(=O)[C@H](Cc2c[nH]c3ccccc23)NC(=O)[C@H](Cc2c[nH]cn2)NC(=O)[C@H](Cc2ccc(O)cc2)NC(=O)[C@@H]2CCCN2C(=O)[C@H](CCCCN)NC(=O)[C@H](Cc2c[nH]c3ccccc23)NC1=O (Ac-CWKPYHWWYVC-NH2; disulfide 1-11),5.60
3,CSCC[C@@H]1NC(=O)[C@H](Cc2c[nH]cn2)NC(=O)[C@H](CO)NC(=O)[C@@H](NC(=O)[C@H](Cc2c[nH]c3ccccc23)NC(=O)[C@H](Cc2ccc(O)cc2)NC(=O)[C@H](Cc2ccccc2)NC(C)=O)CSSC[C@@H](C(=O)N[C@@H](Cc2c[nH]c3ccccc23)C(=O)N[C@@H](CCCNC(=N)N)C(N)=O)NC(=O)[C@H](C(C)C)NC(=O)[C@H]([C@@H](C)O)NC(=O)[C@H]([C@@H](C)O)NC(=O)[C@H](Cc2ccc(O)cc2)NC(=O)[C@H](Cc2ccc(O)cc2)NC1=O (Ac-FYWCSHMYYTTVCWR-NH2; disulfide 4-13),6.48
4,CC(=O)NCC(=O)N[C@@H](Cc1c[nH]c2ccccc12)C(=O)N[C@H]1CSSC[C@@H](C(=O)N[C@@H](CC(C)C)C(=O)N[C@@H](CCCNC(=N)N)C(N)=O)NC(=O)[C@H](Cc2c[nH]c3ccccc23)NC(=O)[C@H](C)NC(=O)[C@H](CO)NC(=O)[C@H](Cc2ccc(O)cc2)NC(=O)[C@H](Cc2ccc(O)cc2)NC(=O)CNC(=O)[C@H](CCCCN)NC(=O)[C@H](Cc2c[nH]c3ccccc23)NC1=O (Ac-GWCWKGYYSAWCLR-NH2; disulfide 3-12),5.96
5,CSCC[C@@H]1NC(=O)[C@H](Cc2c[nH]cn2)NC(=O)[C@H](CO)NC(=O)[C@@H](NC(=O)[C@H](Cc2c[nH]c3ccccc23)NC(=O)[C@H](Cc2ccc(O)cc2)NC(=O)[C@H](Cc2ccccc2)NC(=O)[C@H](CCC(N)=O)NC(C)=O)CSSC[C@@H](C(=O)N[C@@H](Cc2c[nH]c3ccccc23)C(=O)N[C@@H](CCCNC(=N)N)C(N)=O)NC(=O)[C@H](C(C)C)NC(=O)[C@H]([C@@H](C)O)NC(=O)[C@H]([C@@H](C)O)NC(=O)[C@H](Cc2ccc(O)cc2)NC(=O)[C@H](Cc2ccc(O)cc2)NC1=O (Ac-QFYWCSHMYYTTVCWR-NH2; disulfide 5-14),6.57
6,CSCC[C@@H]1NC(=O)[C@H](Cc2c[nH]cn2)NC(=O)[C@H](CO)NC(=O)[C@@H](NC(=O)[C@H](Cc2c[nH]c3ccccc23)NC(=O)[C@H](Cc2ccc(O)cc2)NC(=O)[C@H](Cc2ccccc2)NC(=O)[C@H](CCC(N)=O)NC(=O)[C@@H](NC(=O)[C@@H](NC(=O)[C@H](CCC(N)=O)NC(C)=O)[C@@H](C)O)C(C)C)CSSC[C@@H](C(=O)N[C@@H](Cc2c[nH]c3ccccc23)C(=O)N[C@@H](CCCNC(=N)N)C(N)=O)NC(=O)[C@H](C(C)C)NC(=O)[C@H]([C@@H](C)O)NC(=O)[C@H]([C@@H](C)O)NC(=O)[C@H](Cc2ccc(O)cc2)NC(=O)[C@H](Cc2ccc(O)cc2)NC1=O (Ac-QTVQFYWCSHMYYTTVCWR-NH2; disulfide 8-17),6.10
7,CSCC[C@@H]1NC(=O)[C@H](Cc2c[nH]cn2)NC(=O)[C@H](CO)NC(=O)[C@@H](NC(=O)[C@H](Cc2c[nH]c3ccccc23)NC(=O)[C@H](Cc2ccc(O)cc2)NC(=O)[C@H](Cc2ccccc2)NC(=O)[C@H](CCC(N)=O)NC(=O)[C@@H](NC(=O)[C@@H](NC(C)=O)[C@@H](C)O)C(C)C)CSSC[C@@H](C(=O)N[C@@H](Cc2c[nH]c3ccccc23)C(=O)N[C@@H](CCCNC(=N)N)C(N)=O)NC(=O)[C@H](C(C)C)NC(=O)[C@H]([C@@H](C)O)NC(=O)[C@H]([C@@H](C)O)NC(=O)[C@H](Cc2ccc(O)cc2)NC(=O)[C@H](Cc2ccc(O)cc2)NC1=O (Ac-TVQFYWCSHMYYTTVCWR-NH2; disulfide 7-16),6.05
8,CSCC[C@@H]1NC(=O)[C@H](Cc2c[nH]cn2)NC(=O)[C@H](CO)NC(=O)[C@@H](NC(=O)[C@H](Cc2c[nH]c3ccccc23)NC(=O)[C@H](Cc2ccc(O)cc2)NC(=O)[C@H](Cc2ccccc2)NC(=O)[C@H](CCC(N)=O)NC(=O)[C@@H](NC(C)=O)C(C)C)CSSC[C@@H](C(=O)N[C@@H](Cc2c[nH]c3ccccc23)C(=O)N[C@@H](CCCNC(=N)N)C(N)=O)NC(=O)[C@H](C(C)C)NC(=O)[C@H]([C@@H](C)O)NC(=O)[C@H]([C@@H](C)O)NC(=O)[C@H](Cc2ccc(O)cc2)NC(=O)[C@H](Cc2ccc(O)cc2)NC1=O (Ac-VQFYWCSHMYYTTVCWR-NH2; disulfide 6-15),6.15
9,CSCC[C@@H]1NC(=O)[C@H](Cc2c[nH]cn2)NC(=O)[C@H](CO)NC(=O)[C@@H](NC(=O)[C@H](Cc2c[nH]c3ccccc23)NC(C)=O)CSSC[C@@H](C(=O)N[C@@H](Cc2c[nH]c3ccccc23)C(=O)N[C@@H](CCCNC(=N)N)C(N)=O)NC(=O)[C@H](C(C)C)NC(=O)[C@H]([C@@H](C)O)NC(=O)[C@H]([C@@H](C)O)NC(=O)[C@H](Cc2ccc(O)cc2)NC(=O)[C@H](Cc2ccc(O)cc2)NC1=O (Ac-WCSHMYYTTVCWR-NH2; disulfide 2-11),5.49
10,CC(=O)N[C@@H](Cc1ccc(O)cc1)C(=O)N[C@@H](Cc1c[nH]c2ccccc12)C(=O)N[C@H]1CSSC[C@@H](C(=O)N[C@@H](Cc2c[nH]c3ccccc23)C(=O)N[C@@H](CCCNC(=N)N)C(N)=O)NC(=O)[C@H](C(C)C)NC(=O)[C@H]([C@@H](C)O)NC(=O)[C@H]([C@@H](C)O)NC(=O)[C@H](Cc2ccc(O)cc2)NC(=O)[C@H](Cc2ccc(O)cc2)NC(=O)CNC(=O)[C@H](Cc2c[nH]cn2)NC(=O)[C@H](CO)NC1=O (Ac-YWCSHGYYTTVCWR-NH2; disulfide 3-12),5.77
11,CC(=O)N[C@@H](Cc1ccc(O)cc1)C(=O)N[C@@H](Cc1c[nH]c2ccccc12)C(=O)N[C@H]1CSSC[C@@H](C(=O)N[C@@H](Cc2c[nH]c3ccccc23)C(=O)N[C@@H](CCCNC(=N)N)C(N)=O)NC(=O)[C@H](C(C)C)NC(=O)[C@H]([C@@H](C)O)NC(=O)[C@H]([C@@H](C)O)NC(=O)[C@H](Cc2ccc(O)cc2)NC(=O)[C@H](Cc2ccc(O)cc2)NC(=O)[C@H](CC(C)C)NC(=O)[C@H](Cc2c[nH]cn2)NC(=O)[C@H](CO)NC1=O (Ac-YWCSHLYYTTVCWR-NH2; disulfide 3-12),5.72
12,CSCC[C@@H]1NC(=O)[C@H](Cc2c[nH]cn2)NC(=O)[C@H](CO)NC(=O)[C@@H](NC(=O)[C@H](Cc2c[nH]c3ccccc23)NC(=O)[C@H](Cc2ccc(O)cc2)NC(C)=O)CSSC[C@@H](C(N)=O)NC(=O)[C@H](C(C)C)NC(=O)[C@H]([C@@H](C)O)NC(=O)[C@H]([C@@H](C)O)NC(=O)[C@H](Cc2ccc(O)cc2)NC(=O)[C@H](Cc2ccc(O)cc2)NC1=O (Ac-YWCSHMYYTTVC-NH2; disulfide 3-12),< 4.55
13,CSCC[C@@H]1NC(=O)[C@H](Cc2c[nH]cn2)NC(=O)[C@H](CO)NC(=O)[C@@H](NC(=O)[C@H](Cc2c[nH]c3ccccc23)NC(=O)[C@H](Cc2ccc(O)cc2)NC(C)=O)CSSC[C@@H](C(=O)N[C@@H](Cc2c[nH]c3ccccc23)C(N)=O)NC(=O)[C@H](C(C)C)NC(=O)[C@H]([C@@H](C)O)NC(=O)[C@H]([C@@H](C)O)NC(=O)[C@H](Cc2ccc(O)cc2)NC(=O)[C@H](Cc2ccc(O)cc2)NC1=O (Ac-YWCSHMYYTTVCW-NH2; disulfide 3-12),< 4.55
